In patent US20190284258A1, “HAEMADIPSA SYLVESTRIS ANTITHROMBOTIC PEPTIDE SYLVESTIN AND USE THEREOF” (priority 2016, published 2019):
Positions of bridges follow the written chain, without caps; N, C: chain ends. No end group written: not given here.

Tests used:
tail thrombosis = assay: Carrageenan-induced rat tail thrombosis model; format: in vivo, Kunming mice; conditions: for effect on tail thrombosis (average length of thrombus) compared with control group: each time point 12, 24, 36, 48 h, Sylvestin 2 and 4 mg/kg, heparin sodium 500 U/mouse, t-test p<0.05
Description: [Worded in the source for another organism; this organism is reported under the same test.] Kunming mice were used as experimental animals, body weight 25 to 30 g (provided by the Experimental Animal Center of Kunming Medical College). After one week of housing, they were randomly divided into groups (n=6), half male and half female. One group was a physiological saline control group, the sample groups were Sylvestin synthesized in Example 2 at a dose of 2 mg/kg and 4 mg/kg, respective, and the positive control was given heparin sodium (Beijing Dingguo Changsheng Biotechnology Co., Ltd.), 500 U/mouse. 30 minutes after tail vein administration, carrageenan (carrageenan, type I, Sigma, dissolved in physiological saline to a concentration of 1%) was injected from the abdomen of the mice at a dose of 60 mg/kg, since the thrombosis rate was >90% in a low temperature environment, the housing temperature was set at 17.5° C. After 12, 24, 36, and 48 h, the average length of thrombus was determined according to the color change of the tail skin. Referring to FIG. 1, the average length of thrombus in each group increased with time. […] Data processing was Graphpad Prime 5, data mean±SD, t-test (*p<0.05).

[1] = Isoelectric focusing electrophoresis; format: physicochemical
Description: 3.3 The purity of the purified Haemadipsa sylvestris antithrombotic peptide was determined by HPLC, the molecular weight was determined by fast atom bombardment mass spectrometry, the isoelectric point was determined by isoelectric focusing electrophoresis, and the amino acid sequence was determined by automatic amino acid sequencer.

[2] = test system: cerebral ischemia and reperfusion injury; assay: Acute cerebral ischemic intraluminal thread model; format: in vivo, Kunming mice; conditions: 1, 3, 5 mg/kg i.v. tail vein; 1 h ischemia, assessed at 24 h
Description: Kunming mice (30 to 35 g) were anesthetized with 2% sodium pentobarbital (80 mg/kg). After medium-deep anesthesia, a midline neck incision was made, the skin and subcutaneous tissue of the mice were incised layer by layer, the sternocleidomastoid muscle was separated, the anterior belly of the digastric muscle was incised off, the right common carotid artery (CCA), internal carotid artery (ICA) and external carotid artery (ECA) were exposed, an electric coagulator was used to coagulate thyroid artery and pharyngeal artery over the ECA and they were cut off. Ligation of the distal end of the ECA was performed, seton was placed at the proximal end, CCA and ICA were temporarily closed using a clip, the ECA was cut off, an intraluminal thread was inserted into the ICA from the ECA stump, ligation of the ECA stump was performed, the artery clip of the ICA was removed, pushed inward and upward from the ICA. […] Cerebral ischemia for 24 h, and the neurological deficit score was assessed and recorded according to the Bederson Scale assessment: 0 is no dysfunction; 1 is being unable to extend the right forelimb; 2 is rotating to right; 3 is dumping to right; 4 is no autonomous activity with disturbance of consciousness; 5 is death. […]

[3] = test system: endogenous coagulation pathway (normal plasma); assay: APTT experiment; conditions: OD 650 nm
Description: (§1) The APTT reagent was equilibrated to room temperature and the APTT reagent was mixed by gentle inversion; 50 μL of the reagent, 50 μL of normal plasma and 5 μL of the sample were mixed and incubated in a 37° C. water bath for 3 min; 50 μL of pre-warmed CaCl2 solution was added, mixed immediately; the OD 650 nm was detected with a microplate reader. PT experiment: prothrombin reagent was pre-warmed at 37° C. for 15 min; 50 μL of normal plasma and 5 μL of the sample were incubated in a 37° C. water bath for 3 min; 100 μL of pre-warmed prothrombin reagent was added, mixed immediately; OD 650 nm was detected with a microplate reader.

FXa = FXa (Homo sapiens, UniProt P00742); assay: Enzyme kinetics, FXa; format: biochemical; conditions: sample 10 μM
kallikrein = assay: Enzyme kinetics, kallikrein; format: biochemical
Description: [Worded in the source for another target; this target is reported under the same test.] (§2) In a 96-well plate, 10 μL of the sample and 10 μL of FXIIa with a final concentration of 0.2 μM were mixed in 40 μL of buffer (100 mM NaCl, 50 mM Tris-HCl (pH 8.0), 5 mM CaCl2), allowed to stand at room temperature for 5 min. A mixture of 30 μL of buffer and 10 μL of chromogenic substrate with a final concentration of 0.04 mM was added to each well, the final volume was 100 μL. The kinetics of the coagulation reaction was measured using an Epoch (BioTek) microplate reader and GEN CHS 1.09 software, OD 405 nm, 20 min, with 47 s intervals. The concentration of the sample was 10 μM.

normal plasma = assay: PT experiment; conditions: OD 650 nm
Description: as §1

thrombin = thrombin (Homo sapiens, UniProt P00734); assay: Enzyme kinetics, thrombin; format: biochemical; conditions: sample 10 μM
plasminogen = assay: Enzyme kinetics, plasminogen; format: biochemical; conditions: sample 10 μM
FXIIa = target: T1, FXIIa (Homo sapiens, UniProt P00748); assay: Enzyme kinetics, chromogenic substrate, FXIIa; format: biochemical; conditions: sample 10 μM
T1 sequence (P00748 373-615 limits assumed): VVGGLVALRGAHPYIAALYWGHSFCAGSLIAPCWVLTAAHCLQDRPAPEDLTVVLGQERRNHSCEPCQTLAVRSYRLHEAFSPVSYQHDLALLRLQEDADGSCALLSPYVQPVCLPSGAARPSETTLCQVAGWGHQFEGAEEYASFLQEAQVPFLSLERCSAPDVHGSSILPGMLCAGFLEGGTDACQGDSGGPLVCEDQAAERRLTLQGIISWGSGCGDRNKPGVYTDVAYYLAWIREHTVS
Description: as §2

Chain of FXa (P00742 235-488 limits assumed): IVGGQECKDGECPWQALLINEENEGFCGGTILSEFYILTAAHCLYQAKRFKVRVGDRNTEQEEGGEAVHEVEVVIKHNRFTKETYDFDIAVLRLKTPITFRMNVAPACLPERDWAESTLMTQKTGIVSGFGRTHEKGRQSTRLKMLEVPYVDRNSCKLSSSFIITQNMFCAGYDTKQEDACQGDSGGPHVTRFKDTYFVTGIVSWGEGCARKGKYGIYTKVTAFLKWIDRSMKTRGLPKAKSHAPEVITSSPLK
Chain of FXa (P00742 41-179 partner limits assumed): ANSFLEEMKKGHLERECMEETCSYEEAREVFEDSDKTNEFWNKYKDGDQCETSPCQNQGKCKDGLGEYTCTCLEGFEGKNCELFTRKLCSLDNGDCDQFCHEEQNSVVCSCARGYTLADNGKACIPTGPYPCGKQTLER

Row | Substance | inhibition rate against thrombus versus dose (tail thrombosis; 2 mg/kg and 4 mg/kg) | inhibition rate against thrombosis over time (tail thrombosis; 12 to 48 h) | change of length of thrombus from 12 h to 24 h (tail thrombosis) | inhibitory effect on thrombosis compared with control group after 48 h (tail thrombosis; 48 h, tail vein) | effect on tail thrombosis (average length of thrombus) compared with control group (tail thrombosis; tail vein) | isoelectric point [1] | injury caused by cerebral ischemia and reperfusion (Bederson score, ischemic volume) [2] | effect in APTT experiment [3] | inhibitory effect on FXa (FXa) | Ki (kallikrein; read-out: inhibition constant on kallikrein) [nM] | inhibitory effect on kallikrein (kallikrein; sample 10 μM) | effect in PT experiment (normal plasma) | inhibitory effect on thrombin (thrombin) | inhibitory effect on plasminogen (plasminogen) | inhibitory effect on FXIIa (FXIIa)
1 | TSEPVCACPKMLFWVCGKDGETYTHPCIAKCHNVEVEHDGKCK (disulfide 6-31, 8-27, 16-42) [Sylvestin] | increased as concentration increased | decreased over time | increased slightly | significant inhibitory effect | statistically significant | 6.28 | effectively alleviate the injury | concentration-dependent effect | no inhibitory effect | 17.8 | can inhibit | no effect | no inhibitory effect | no inhibitory effect | can inhibit
2 | heparin sodium [reference compound] | – | – | doubled | – | statistically significant | – | – | – | – | – | – | – | – | – | –
